Experimental data taken from patent US20230167073A1 (Teijin Pharma Limited, priority 2020, published 2023).

What follows are compounds tested against T1, Human TRPC6 (Homo sapiens, UniProt Q9Y210) (assay: Evaluation of TRPC6 channel inhibitory activity (1), FLIPR Calcium 5 Assay Kit, OAG stimulation (Compound Nos. 1-1293)). Settings: Human TRPC6 stably-expressing cells, OAG 30 μM, FLIPR Calcium 5 Assay Kit; read-out: Inhibitory activity (pIC50 class) (converted).
T1 construct: expressed in transfected cells
T1 sequence (Q9Y210 1-931): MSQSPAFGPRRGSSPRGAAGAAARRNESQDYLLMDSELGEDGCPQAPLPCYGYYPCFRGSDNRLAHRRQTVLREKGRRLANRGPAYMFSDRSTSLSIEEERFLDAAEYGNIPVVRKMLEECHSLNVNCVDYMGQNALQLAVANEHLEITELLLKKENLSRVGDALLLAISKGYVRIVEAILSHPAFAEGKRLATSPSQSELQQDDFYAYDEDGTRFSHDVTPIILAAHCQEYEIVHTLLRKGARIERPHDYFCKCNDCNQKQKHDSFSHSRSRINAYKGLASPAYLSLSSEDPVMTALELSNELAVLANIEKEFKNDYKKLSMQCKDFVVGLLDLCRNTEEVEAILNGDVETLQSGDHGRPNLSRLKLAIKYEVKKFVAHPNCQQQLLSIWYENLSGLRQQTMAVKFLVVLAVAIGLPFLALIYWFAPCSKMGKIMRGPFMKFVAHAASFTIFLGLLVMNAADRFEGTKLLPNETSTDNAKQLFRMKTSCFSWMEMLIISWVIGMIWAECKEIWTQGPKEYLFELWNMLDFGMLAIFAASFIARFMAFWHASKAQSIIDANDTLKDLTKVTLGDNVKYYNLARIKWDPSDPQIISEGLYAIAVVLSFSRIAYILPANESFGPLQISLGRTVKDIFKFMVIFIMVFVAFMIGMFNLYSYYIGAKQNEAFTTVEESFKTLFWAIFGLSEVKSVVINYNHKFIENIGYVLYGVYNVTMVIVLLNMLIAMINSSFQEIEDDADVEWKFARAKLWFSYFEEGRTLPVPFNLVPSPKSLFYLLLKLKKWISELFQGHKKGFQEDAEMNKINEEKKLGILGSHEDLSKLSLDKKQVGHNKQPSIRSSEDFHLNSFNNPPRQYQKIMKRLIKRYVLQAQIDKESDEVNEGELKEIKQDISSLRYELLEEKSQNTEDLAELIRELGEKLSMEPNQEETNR
Format: cell-based
In short: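 The FLIPR signal is maximum fluorescence after 30 μM OAG minus minimum before compound, measured in a human TRPC6 stable line loaded with Calcium 5 dye. Compounds were preincubated 20 min. pIC50 came from four-parameter logistic fitting of inhibition rates and is given as symbol ranges.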
An IC50 of 10 to 1000 nM was found for `N#Cc1ccc(-c2ccc(CCN)cc2)c(Oc2cnnc(-c3cccc(F)c3C#N)c2)c1` [Compound 84, 2-[5-[2-[4-(2-aminoethyl)phenyl]-5-cyanophenoxy]pyridazin-3-yl]-6-fluorobenzonitrile] in this work. An IC50 of 10 to 1000 nM was found for `Cc1nc(Oc2cc(C#N)ccc2-c2ccc(CCN)cn2)cc(N2CCOCC2)n1` [Compound 85, 4-[5-(2-aminoethyl)pyridin-2-yl]-3-(2-methyl-6-morpholin-4-ylpyrimidin-4-yl)oxybenzonitrile] in this work. An IC50 of 10 to 1000 nM was found for `Cc1nc(Oc2cc(C#N)ccc2-c2ccc(CCN)cn2)cc(-c2ccccc2)n1` [Compound 86, 4-[5-(2-aminoethyl)pyridin-2-yl]-3-(2-methyl-6-phenylpyrimidin-4-yl)oxybenzonitrile] in this work. An IC50 greater than 1000 nM was found for `N#Cc1ccc(-c2ccc(CCN)cn2)c(Oc2cnnc(Cl)c2)c1` [Compound 87, 4-[5-(2-aminoethyl)pyridin-2-yl]-3-(6-chloropyridazin-4-yl)oxybenzonitrile] in this work. An IC50 greater than 1000 nM was found for `N#Cc1ccc(-c2ccc(CCN)cn2)c(Oc2cc(Cl)cnn2)c1` [Compound 88, 4-[5-(2-aminoethyl)pyridin-2-yl]-3-(5-chloropyridazin-3-yl)oxybenzonitrile] in this work. An IC50 greater than 1000 nM was found for `N#Cc1ccc(-c2ccc(CCN)cn2)c(Oc2cnnc(N3CCOCC3)c2)c1` [Compound 89, 4-[5-(2-aminoethyl)pyridin-2-yl]-3-(6-morpholin-4-ylpyridazin-4-yl)oxybenzonitrile] in this work. An IC50 of 10 to 1000 nM was found for `N#Cc1ccc(-c2ccc(CCN)cn2)c(Oc2cnnc(N3CCCCC3)c2)c1` [Compound 90, 4-[5-(2-aminoethyl)pyridin-2-yl]-3-(6-piperidin-1-ylpyridazin-4-yl)oxybenzonitrile] in this work. An IC50 greater than 1000 nM was found for `N#Cc1ccc(-c2ccc(CCN)cn2)c(Oc2cc(N3CCOCC3)cnn2)c1` [Compound 91, 4-[5-(2-aminoethyl)pyridin-2-yl]-3-(5-morpholin-4-ylpyridazin-3-yl)oxybenzonitrile] in this work. An IC50 greater than 1000 nM was found for `N#Cc1ccc(-c2ccc(CCN)cn2)c(Oc2cc(N3CCCCC3)cnn2)c1` [Compound 92, 4-[5-(2-aminoethyl)pyridin-2-yl]-3-(5-piperidin-1-ylpyridazin-3-yl)oxybenzonitrile] in this work. An IC50 of less than 10 nM was found for `N#Cc1ccc(-c2ccc(CCN)cc2)c(Oc2cnnc(-c3ccccc3C#N)c2)c1` [Compound 93, 4-[4-(2-aminoethyl)phenyl]-3-[6-(2-cyanophenyl)pyridazin-4-yl]oxybenzonitrile] in this work. An IC50 greater than 1000 nM was found for `N#Cc1ccc(-c2ccc(CCN)cc2)c(Oc2cnnc(-c3ccccc3C(N)=O)c2)c1` [Compound 94, 2-[5-[2-[4-(2-aminoethyl)phenyl]-5-cyanophenoxy]pyridazin-3-yl]benzamide] in this work. An IC50 greater than 1000 nM was found for `Cc1nc(Oc2cc(C#N)ccc2-c2ccc3c(c2)CNCC3)cc(N2CCOCC2)n1` [Compound 95, 3-(2-methyl-6-morpholin-4-ylpyrimidin-4-yl)oxy-4-(1,2,3,4-tetrahydroisoquinolin-7-yl)benzonitrile] in this work. An IC50 greater than 1000 nM was found for `Cc1nc(Oc2cc(C#N)ccc2-c2ccc(C(O)CN(C)C)cc2)cc(-c2ccccc2)n1` (centres unmarked) [Compound 96, 4-[4-[2-(dimethylamino)-1-hydroxyethyl]phenyl]-3-(2-methyl-6-phenylpyrimidin-4-yl)oxybenzonitrile] in this work. An IC50 greater than 1000 nM was found for `Cc1nc(Oc2cc(C#N)ccc2-c2ccc(C(O)CN3CCCC3)cc2)cc(-c2ccccc2)n1` (centres unmarked) [Compound 97, 4-[4-(1-hydroxy-2-pyrrolidin-1-ylethyl)phenyl]-3-(2-methyl-6-phenylpyrimidin-4-yl)oxybenzonitrile] in this work. An IC50 greater than 1000 nM was found for `Cc1nc(Oc2cc(C#N)ccc2-c2nc(C)c(C(O)CN(C)C)s2)cc(-c2ccccc2)n1` (centres unmarked) [Compound 98, 4-[5-[2-(dimethylamino)-1-hydroxyethyl]-4-methyl-1,3-thiazol-2-yl]-3-(2-methyl-6-phenylpyrimidin-4-yl)oxybenzonitrile] in this work. An IC50 greater than 1000 nM was found for `Cc1nc(Oc2cc(C#N)ccc2-c2nc(C(O)CN(C)C)c(C)n2C)cc(-c2ccccc2)n1` (centres unmarked) [Compound 99, 4-[4-[2-(dimethylamino)-1-hydroxyethyl]-1,5-dimethylimidazol-2-yl]-3-(2-methyl-6-phenylpyrimidin-4-yl)oxybenzonitrile] in this work. An IC50 of less than 10 nM was found for `CCOC(CN)c1ccc(-c2ccc(C#N)cc2Oc2cc(N3CCOCC3)nc(C)n2)cc1` (centres unmarked) [Compound 100, 4-[4-(2-amino-1-ethoxyethyl)phenyl]-3-(2-methyl-6-morpholin-4-ylpyrimidin-4-yl)oxybenzonitrile] in this work. An IC50 of less than 10 nM was found for `Cc1nc(Oc2cc(C#N)ccc2-c2ccc(C(CN)C(F)(F)F)cc2)cc(N2CCOCC2)n1` (centres unmarked) [Compound 101, 4-[4-(3-amino-1,1,1-trifluoropropan-2-yl)phenyl]-3-(2-methyl-6-morpholin-4-ylpyrimidin-4-yl)oxybenzonitrile] in this work. An IC50 of 10 to 1000 nM was found for `N#Cc1ccc(-c2ccc(CCN)nc2)c(Oc2cnnc(-c3ccccc3)c2)c1` [Compound 102, 4-[6-(2-aminoethyl)pyridin-3-yl]-3-(6-phenylpyridazin-4-yl)oxybenzonitrile] in this work. An IC50 of 10 to 1000 nM was found for `N#Cc1ccc(-c2ccc(CCN)cn2)c(Oc2cnnc(-c3ccccc3)c2)c1` [Compound 103, 4-[5-(2-aminoethyl)pyridin-2-yl]-3-(6-phenylpyridazin-4-yl)oxybenzonitrile] in this work. An IC50 greater than 1000 nM was found for `Cc1nc(Oc2cc(C#N)ccc2-n2cc(C(O)CN(C)C)cn2)cc(-c2ccccc2)n1` (centres unmarked) [Compound 104, 4-[4-[2-(dimethylamino)-1-hydroxyethyl]pyrazol-1-yl]-3-(2-methyl-6-phenylpyrimidin-4-yl)oxybenzonitrile] in this work. An IC50 greater than 1000 nM was found for `Cc1nc(Oc2cc(C#N)ccc2-n2cc(C(O)CN(C)C)cn2)cc(N2CCOCC2)n1` (centres unmarked) [Compound 105, 4-[4-[2-(dimethylamino)-1-hydroxyethyl]pyrazol-1-yl]-3-(2-methyl-6-morpholin-4-ylpyrimidin-4-yl)oxybenzonitrile] in this work. An IC50 greater than 1000 nM was found for `Cc1nc(Oc2cc(C#N)ccc2-c2ccc(C(O)CN(C)C)cc2)cc(N2CCOCC2)n1` (centres unmarked) [Compound 106, 4-[4-[2-(dimethylamino)-1-hydroxyethyl]phenyl]-3-(2-methyl-6-morpholin-4-ylpyrimidin-4-yl)oxybenzonitrile] in this work. An IC50 of 10 to 1000 nM was found for `N#Cc1ccc(-c2ccc(CCN)cc2)c(Oc2cnnc(OC3CCCC3)c2)c1` [Compound 107, 4-[4-(2-aminoethyl)phenyl]-3-(6-cyclopentyloxypyridazin-4-yl)oxybenzonitrile] in this work. An IC50 of 10 to 1000 nM was found for `CC(C)(C)COc1cc(Oc2cc(C#N)ccc2-c2ccc(CCN)cc2)cnn1` [Compound 108, 4-[4-(2-aminoethyl)phenyl]-3-[6-(2,2-dimethylpropoxy)pyridazin-4-yl]oxybenzonitrile] in this work. An IC50 greater than 1000 nM was found for `N#Cc1ccc(-c2ccc(CCN)cc2)c(Oc2cnnc(OCC(F)(F)F)c2)c1` [Compound 109, 4-[4-(2-aminoethyl)phenyl]-3-[6-(2,2,2-trifluoroethoxy)pyridazin-4-yl]oxybenzonitrile] in this work. An IC50 greater than 1000 nM was found for `Cc1noc(C)c1-c1cc(Oc2cc(C#N)ccc2-c2ccc(CCN)cc2)cnn1` [Compound 110, 4-[4-(2-aminoethyl)phenyl]-3-[6-(3,5-dimethyl-1,2-oxazol-4-yl)pyridazin-4-yl]oxybenzonitrile] in this work. An IC50 of 10 to 1000 nM was found for `Cn1nc(C(F)(F)F)cc1-c1cc(Oc2cc(C#N)ccc2-c2ccc(CCN)cc2)cnn1` [Compound 111, 4-[4-(2-aminoethyl)phenyl]-3-[6-[2-methyl-5-(trifluoromethyl)pyrazol-3-yl]pyridazin-4-yl]oxybenzonitrile] in this work. An IC50 of less than 10 nM was found for `Cc1nc(Oc2cc(C#N)ccc2-c2ccc(CCN)cc2)cc(N2CCC[C@H]2C#N)n1` [Compound 112, (2S)-1-[6-[2-[4-(2-aminoethyl)phenyl]-5-cyanophenoxy]-2-methylpyrimidin-4 yl]pyrrolidine-2-carbonitrile] in this work. An IC50 of less than 10 nM was found for `N#Cc1ccc(-c2ccc(CCN)cc2)c(Oc2cc(N3CCOCC3)nc(C(F)(F)F)n2)c1` [Compound 113, 4-[4-(2-aminoethyl)phenyl]-3-[6-morpholin-4-yl-2-(trifluoromethyl)pyrimidin-4-yl]oxybenzonitrile] in this work. An IC50 of 10 to 1000 nM was found for `N#Cc1ccc(-c2ccc(CCN)cc2)c(Oc2cnnc(-c3ccccn3)c2)c1` [Compound 114, 4-[4-(2-aminoethyl)phenyl]-3-(6-pyridin-2-ylpyridazin-4-yl)oxybenzonitrile] in this work. An IC50 of less than 10 nM was found for `Cn1nc(-c2ccccc2)cc1Oc1cc(C#N)ccc1-c1ccc(CCN)cc1` [Compound 115, 4-[4-(2-aminoethyl)phenyl]-3-(2-methyl-5-phenylpyrazol-3-yl)oxybenzonitrile] in this work.
